Experimental data: patent publication US20120208781A1, “AMINOGLYCOSIDE DOSING REGIMENS” (Achaogen, Inc., priority 2009, published 2012)
Converted amounts (≈) assume the structure as drawn. “And” between values parts separate entries of the source, which are not always exact repeats. Equal entries are not always repeated. Where two headings read alike, the source gives them in different places.

How the values were obtained:
[1] = system: cochlear function, vestibular function; experiment: First-in-human phase 1 study: cochlear and vestibular function (ototoxicity); type: in vivo; settings: healthy volunteers
Method: Safety evaluation was based on clinical observations, vital sign measurements, laboratory tests, physical examination, electrocardiogram, cochlear function, vestibular function testing, and reported adverse events. Cochlear function was evaluated by pure tone audiometry with bone conduction and otoacoustic emission (OAE) testing. Vestibular function was evaluated by electronystagmography (ENG) and Dynamic Visual Acuity (DVA) test. Laboratory tests included complete blood count (CBC), serum chemistries, and urinalysis. BUN and creatinine (Cr) were assessed daily on dosing days to allow the Investigator to monitor renal function. Results were used as criteria for dose escalation. The glomerular filtration rate (GFR) was estimated using iothalamate plasma measurements before dosing and after the multiple dose periods. GFR was also assessed by Cr clearance before dosing and after the multiple dose periods.
Complete physical examinations and ECGs were completed at screen and 2 days after the last multiple-dose. Abbreviated physical examinations were completed prior to the single-dose and prior to the first multiple-dose (those receiving IMP for 10 days have an additional examination prior to the 6th multiple-dose infusion). Vital signs were assessed at screen and all visits during treatment period. Additional safety assessments, including pure tone audiometry and ENG caloric, testing was performed or will be performed at 3 and 6 months after the last dose. Concomitant therapies and adverse events are assessed throughout the screen and treatment period.

[2] = Pharmacokinetics of Compound 1 after single bolus IV injection in beagle dogs (plasma); type: in vivo; settings: for AUC(0-inf) / C0 / clearance / MRT inf / Vd: iv; for MRT inf: read-out: MRT0-∞
Method: Male CD-1 mice, Sprague Dawley rats, and beagle dogs were administered Compound 1 intravenously. Compound 1 was preformulated as a sterile isotonic solution of 10 mg/mL in PBS. Specifically, male CD-1 mice were administered a single bolus IV injection of the Compound at 10 mg/kg, via a bolus IV injection into the tail vein. Two blood samples per mouse were collected by retro-orbital puncture into tubes containing the anticoagulant K2EDTA prior to dosing and at 0.033, 0.083, 0.25, 0.5, 1 and 24 hours. Rats were administered Compound 1 at 10 mg/kg via a bolus IV injection into the tail vein. Twelve blood samples per rat were collected via a jugular vein cannula into tubes containing the anticoagulant K2EDTA at various timepoints (i.e., 0.033, 0.083, 0.25, 0.5, 1, 2, 4, 6, 8, 10, 12, and 24 hours). Male beagle dogs were administered Compound 1 at 10 mg/kg through a temporary percutaneous catheter placed in a peripheral vein. Whole blood samples (0.5 mL) were collected from each dog prior to dosing and at 0.033, 0.083, 0.25, 0.5, 1, 2, 4, 6, 8, and 24 hours via direct venipuncture of a jugular or cephalic vein into tubes containing the anticoagulant K2EDTA. A sparse sampling method was employed to conserve animals and provide the best data possible from fewer mice. Samples were centrifuged, and plasma was collected and transferred into a new tube and frozen at −80° C. until they were analyzed.
Blood, urine, and kidney samples collected over 24 hours were analyzed for Compound 1 levels using LC-MS/MS. Method performance was acceptable in the concentration ranges necessary to determine plasma levels. Compound 1 plasma concentrations were determined by comparing Compound 1 concentration in the sample to a standard curve derived from LC-MS/MS measurements of the analyte. The standard curve fit was linear with a 1/x^2 weighting.
(§1) Bioanalytical data analyses were carried out using Analyst software (version 1.4.1, Applied Biosystems, Toronto, ON, Canada). […] PK parameters were determined by noncompartmental analysis using WinNonLin. Plasma protein binding was determined using equilibrium dialysis. In vitro stability was determined using commercially available plasma, microsomes and hepatocytes.

[3] = system: S. aureus (SA); experiment: MIC, CLSI broth microdilution, worldwide isolates: S. aureus; type: cell-based
Description: In the first study, a total of 235 isolates were collected from medical centers worldwide and tested for susceptibility to Compound 1 and comparator agents by CLSI broth microdilution methods. […] Non-ENT GN pathogens included WT P. aeruginosa (PSA) and Acinetobacter spp. (ACB), and carbapenem (CARB)-R strains, including those with MBL and OXA enzymes, SA and coagulase-negative staphylococci (CoNS) included oxacillin-susceptible (MSSA/MS-CoNS) and —R (MRSA/MR-CoNS) strains.
Minimum inhibitory concentrations (MIC) were determined by reference Clinical and Laboratory Standards Institute (CLSI) broth microdilution methods per M7-A7 [2006]. Briefly, serial two-fold dilutions of Compound 1 and comparator AGs (together, “the test compounds”) were prepared at 2× concentration in appropriate diluent. The dilutions were mixed in 96-well assay plates with bacterial inoculum. Bacteria were suspended in sterile saline and added to each assay plate to obtain a final concentration of 5.5×10^5 CFU/mL. The plates were incubated at 35° C. for 20 hours in ambient air. […] After incubation, assay plates were read using a microtiter plate reader at 600 nm.

[4] = In vitro stability in plasma, microsomes and hepatocytes; type: in vitro ADME; settings: liver microsomes and hepatocytes
Method: as §1

[5] = beagle dogs, 10 mg/kg single bolus IV, Mean ± SD, 10 mg/kg
[6] = male, beagle, dog, plasma, 10 mg/kg, beagle dogs, 10 mg/kg single bolus IV, Dog 601
[7] = male, beagle, dog, plasma, 10 mg/kg, beagle dogs, 10 mg/kg single bolus IV, Dog 602
[8] = male, beagle, dog, plasma, 10 mg/kg, beagle dogs, 10 mg/kg single bolus IV, Dog 603
[9] = male, beagle, dog, plasma, 10 mg/kg, beagle dogs, 10 mg/kg single bolus IV, Mean ± SD
[10] = Staphylococcus aureus, SA isolates

CN[C@@H]1[C@@H](O)[C@@H](O[C@@H]2[C@@H](O)[C@H](O[C@H]3OC(CNCCO)=CC[C@H]3N)[C@@H](N)C[C@H]2NC(=O)[C@@H](O)CCN)OC[C@]1(C)O [Compound 1, 6′-(2-Hydroxy-ethyl)-1-(4-amino-2(S)-hydroxy-butyryl)-sisomicin]
cochlear function (pure tone audiometry, bone conduction, OAE) [1]: did not reveal any treatment related effects
ototoxicity signal [1]: No ototoxocity signal
vestibular function (ENG and DVA) [1]: did not reveal any treatment related effects
HL Lambda Z ([2]; beagle dogs, 10 mg/kg single bolus IV, Dog 601): 1.18 h
HL Lambda Z ([2]; beagle dogs, 10 mg/kg single bolus IV, Dog 602): 1.24 h
HL Lambda Z ([2]; beagle dogs, 10 mg/kg single bolus IV, Dog 603): 1.23 h
AUC0-∞ [2, 5]: 82600 ± 11500 ng·h/mL
HL Lambda Z [2, 5]: 1.22 h and 1.22 ± 0.03 h
half-life ([2]; male, beagle, dog, plasma, intravenous, 10 mg/kg, dogs, read-out: t½ (renal clearance) (converted)): ~1 h
AUC(0-inf) [2, 6]: 69400 ng·h/mL
C0 [2, 6]: 134 µg/mL
clearance [2, 6]: 2.4 mL/min/kg
MRT inf [2, 6]: 1.26 h
Vd ([2]; male, beagle, dog, plasma, 10 mg/kg, beagle dogs, 10 mg/kg single bolus IV, Dog 601, read-out: Vss): 0.181 L
AUC(0-inf) [2, 7]: 88700 ng·h/mL
C0 [2, 7]: 119 µg/mL
clearance [2, 7]: 1.88 mL/min/kg
MRT inf [2, 7]: 1.32 h
Vd ([2]; male, beagle, dog, plasma, 10 mg/kg, beagle dogs, 10 mg/kg single bolus IV, Dog 602, read-out: Vss): 0.149 L
AUC(0-inf) [2, 8]: 89700 ng·h/mL
C0 [2, 8]: 106 µg/mL
clearance [2, 8]: 1.85 mL/min/kg
MRT inf [2, 8]: 1.45 h
Vd ([2]; male, beagle, dog, plasma, 10 mg/kg, beagle dogs, 10 mg/kg single bolus IV, Dog 603, read-out: Vss): 0.162 L
AUC(0-inf) [2, 9]: 83000 ng·h/mL
C0 [2, 9]: 120 µg/mL
clearance [2, 9]: 2.05 mL/min/kg
MRT inf [2, 9]: 1.34 h
Vd ([2]; male, beagle, dog, plasma, 10 mg/kg, beagle dogs, 10 mg/kg single bolus IV, Mean ± SD, read-out: Vss): 0.164 ± 0.016 L
Vd ([2]; male, beagle, dog, plasma, 10 mg/kg, beagle dogs, 10 mg/kg single bolus IV, mean, read-out: volume of distribution at steady state): 0.164 L/kg
Cumulative % inhibited at Cmpd. MIC 1 ([3]; SA (30)): 96.7%
Cumulative % inhibited at Cmpd. MIC 2 ([3]; SA (30)): 100.0%
Cumulative % inhibited at Cmpd. MIC ≦0.5 ([3]; SA (30)): 66.7%
Cumulative % inhibited at Cmpd. MIC 1 ([3]; SA, MRSA (20)): 100.0%
Cumulative % inhibited at Cmpd. MIC ≦0.5 ([3]; SA, MRSA (20)): 60.0%
Cumulative % inhibited at Cmpd. MIC 1 ([3]; SA, MSSA (10)): 90.0%
Cumulative % inhibited at Cmpd. MIC 2 ([3]; SA, MSSA (10)): 100.0%
Cumulative % inhibited at Cmpd. MIC ≦0.5 ([3]; SA, MSSA (10)): 80.0%
MIC50 [3, 10]: ≤ 0.25 µg/mL
MIC90 [3, 10]: 0.5 µg/mL (≈ 0.844 µM)
in vitro stability [4]: stable
